Experimental data: patent US7910621B2, “Small molecule antagonists of XIAP family proteins” (The Regents of the University of Michigan, priority 2004, dated 2011)

What was measured:
[1] = target: T1, human XIAP-BIR3 domain (residues 241-356) (Homo sapiens, UniProt P98170); test: 15N-HSQC NMR binding confirmation; conditions: 100 μM protein, 100 μM embelin, 30° C.
T1 construct: The human XIAP-BIR3 domain (residues 241-356) fused to His-tag; His-tag (pET-28b); made in house; host or cells: Escherichia coli BL21(DE3)
T1 sequence (P98170 241-356): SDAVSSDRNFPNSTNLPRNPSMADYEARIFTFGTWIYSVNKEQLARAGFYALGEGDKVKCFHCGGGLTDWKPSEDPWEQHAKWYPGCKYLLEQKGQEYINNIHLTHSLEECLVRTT
Method: To conclusively confirm that embelin binds to the XIAP BIR3 domain where Smac and caspase-9 bind, and to rule out any potential false positive, an analysis using nuclear magnetic resonance (NMR) Heteronuclear Single Quantum Coherence Spectroscopy (HSQC) method was performed. The human XIAP-BIR3 domain (residues 241-356) fused to His-tag was expressed in M9 medium containing ^15N ammonium chloride to uniformly label protein with ^15N and was purified. ^15N HSQC NMR spectra were recorded with embelin and without embelin at 30° C. […]
The NMR experiments were performed on a Varian Inova 500 with pulse field gradient (PFG) HSQC, with the water flip back to maximize the signal intensity and to minimize the destruction from the water signal (see, e.g., Grzesiek, S., et al., J. Am. Chem. Soc. 115, 12593-94 (1993); Sheppard, G. S., et al., Abstr. Pap.-Am. Chem. Soc. 213, 81 (1997)) (300 μM XIAP, 50 mM phosphate buffer pH 7.3, 2 mM DTT at 25° C.). ^15N HSQC NMR spectra were recorded with samples containing 100 μM of the ^15N protein in 50 mM Tris (pH 7.2), 50 μM Zn(Cl)2, 1 mM DTT at 30° C. with 100 μM embelin and without it. […]

[2] = tested on: normal human fibroblast cell line WI-38; test: WST-1 cell growth inhibition assay, WI-38; type: cell-based; conditions: 120 h, WI-38, WST-1, five days
Method: FIG. 5 presents inhibition of cell growth by embelin in prostate cancer cells (PC-3 and LnCap) and its selectivity in normal human prostate epithelial cells (PrEC) and normal human fibroblast cell line, WI-38. 5000 cells per well in a 96-well cell culture plate were treated with various concentrations of embelin in triplicate. Five days later, the cell growth was measured by the WST-1 cell growth assay kit […] The cell growth results are expressed as the percent of control and calculated from the percent of absorbance of treated wells versus that of vehicle control.
Human prostate cancer cell lines (PC-3, LNCap, CL-1, DU-145), and normal human fibroblast cell line WI-38 were obtained from the American Type Culture Collection (ATCC), were grown and maintained in Dulbecco's modified Eagle's medium (DMEM) containing 10% FBS (Invitrogen Corporation). Normal human prostate epithelial cells (PrEC) were obtained from Clonetics (Cambrex Inc., MD) and maintained in the special medium provided by the company. […]
Cell growth was determined by the MTT-based assay using Cell Proliferation Reagent WST-1 (Roche) according to the manufacturer's instruction. […] Absorbance was measured with a plate reader at […] with correction at […]. The results are expressed as the percent of absorbance of treated wells versus that of vehicle control.

[3] = tested on: Jurkat-XIAP cells; test: Cell growth assay, Jurkat-XIAP; type: cell-based; conditions: essentially identical to that in Jurkat-Vec cells
Method: FIG. 9 presents inhibition of cell growth by embelin in Jurkat-Vec and Jurkat-XIAP cells. The cell growth results are expressed as the percent of control and calculated from the percent of absorbance of treated wells versus that of vehicle control.
Human prostate cancer cell lines (PC-3, LNCap, CL-1, DU-145), and normal human fibroblast cell line WI-38 were obtained from the American Type Culture Collection (ATCC), were grown and maintained in Dulbecco's modified Eagle's medium (DMEM) containing 10% FBS (Invitrogen Corporation). Normal human prostate epithelial cells (PrEC) were obtained from Clonetics (Cambrex Inc., MD) and maintained in the special medium provided by the company. Jurkat T-cells stably transfected with either empty vector (Jurkat-Vec), or XIAP (Jurkat-XIAP) and were cultured in RPMI 1640 containing 10% fetal calf serum and 1 ug/ml puromycin. Cell cultures were maintained in a humidified incubator at 37° C. and 5% CO2.
Cell growth was determined by the MTT-based assay using Cell Proliferation Reagent WST-1 (Roche) according to the manufacturer's instruction. The WST-1 assay is a colorimetric assay that measures the reduction of WST-1 by mitochondrial succinate dehydrogenase, which belongs to the respiratory chain of the mitochondria and is active only in viable cells. The WST-1 enters the cells and passes into the mitochondria, where it is reduced to a soluble, colored formazan product. The amount of formazan dye formed directly correlates to the number of metabolically active cells in the culture. Cells (5000 cells/well) were grown in medium with 10% FBS, and various concentrations of drugs were added to the cells in triplicate. […] Absorbance was measured with a plate reader at […] with correction at […]. The results are expressed as the percent of absorbance of treated wells versus that of vehicle control.

CCCCCCCCCCCC1=C(O)C(=O)C=C(O)C1=O [embelin]
binding site on XIAP BIR3 by 15N HSQC NMR [1]: binds to the surface groove in the XIAP BIR3 domain where Smac and caspase-9 bind | IC50 [2]: 19.3 µM | activity in cell growth assay [3]: weak activity
